This note sets out measurements from article PMC5857911, “Inositol pyrophosphate synthesis by diphosphoinositol pentakisphosphate kinase-1 is regulated by phosphatidylinositol(4,5)bisphosphate” (Bioscience Reports, 2018).

Common to all, as to format: biochemical
In test [1] the target is T1, PPIP5K1 (Homo sapiens, UniProt Q6PFW1).
T1 construct: full-length human PPIP5K1
T1 sequence (Q6PFW1 1-1433): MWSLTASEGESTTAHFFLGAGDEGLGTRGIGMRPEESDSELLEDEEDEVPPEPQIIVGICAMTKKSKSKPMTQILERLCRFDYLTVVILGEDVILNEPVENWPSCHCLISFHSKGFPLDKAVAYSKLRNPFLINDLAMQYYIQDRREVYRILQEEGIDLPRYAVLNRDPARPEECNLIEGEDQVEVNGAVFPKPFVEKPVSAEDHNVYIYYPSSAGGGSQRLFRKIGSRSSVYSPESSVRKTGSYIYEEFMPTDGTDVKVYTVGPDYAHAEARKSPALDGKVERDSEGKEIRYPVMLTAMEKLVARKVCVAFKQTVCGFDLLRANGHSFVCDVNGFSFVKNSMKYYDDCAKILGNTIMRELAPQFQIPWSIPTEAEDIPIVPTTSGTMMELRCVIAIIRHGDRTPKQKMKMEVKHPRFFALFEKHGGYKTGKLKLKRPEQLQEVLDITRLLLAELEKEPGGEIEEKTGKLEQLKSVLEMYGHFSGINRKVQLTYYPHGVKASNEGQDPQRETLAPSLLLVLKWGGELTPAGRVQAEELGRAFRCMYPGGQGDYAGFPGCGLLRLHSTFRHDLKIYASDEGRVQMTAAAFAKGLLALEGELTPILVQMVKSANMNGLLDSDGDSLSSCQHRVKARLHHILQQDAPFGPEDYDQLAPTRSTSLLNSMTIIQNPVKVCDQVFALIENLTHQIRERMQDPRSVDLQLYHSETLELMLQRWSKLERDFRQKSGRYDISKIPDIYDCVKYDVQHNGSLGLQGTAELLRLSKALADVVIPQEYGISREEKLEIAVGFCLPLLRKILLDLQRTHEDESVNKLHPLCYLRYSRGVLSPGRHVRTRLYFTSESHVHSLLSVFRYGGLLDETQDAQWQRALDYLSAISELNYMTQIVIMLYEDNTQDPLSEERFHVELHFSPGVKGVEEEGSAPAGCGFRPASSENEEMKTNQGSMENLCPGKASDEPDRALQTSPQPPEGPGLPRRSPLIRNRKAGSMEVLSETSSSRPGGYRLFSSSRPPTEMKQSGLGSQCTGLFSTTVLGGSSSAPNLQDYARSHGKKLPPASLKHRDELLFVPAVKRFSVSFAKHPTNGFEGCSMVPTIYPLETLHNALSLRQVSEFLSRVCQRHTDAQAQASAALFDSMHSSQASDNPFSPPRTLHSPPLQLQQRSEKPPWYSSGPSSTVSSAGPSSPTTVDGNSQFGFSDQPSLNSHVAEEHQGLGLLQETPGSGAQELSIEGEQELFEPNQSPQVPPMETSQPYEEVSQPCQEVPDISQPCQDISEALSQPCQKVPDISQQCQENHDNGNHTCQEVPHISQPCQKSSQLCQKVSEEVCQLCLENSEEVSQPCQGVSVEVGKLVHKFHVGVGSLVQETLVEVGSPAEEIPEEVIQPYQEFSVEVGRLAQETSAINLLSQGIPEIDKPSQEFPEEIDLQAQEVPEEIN
The experiment in a line: kinase assay of purified recombinant enzyme with […]-[3H]InsP7, HPLC, first-order conditions.

The target in test [2] is T2, PPIP5K1 (Homo sapiens, UniProt Q6PFW1, R399A).
T2 construct: full-length human PPIP5K1
T2 sequence (Q6PFW1 1-1433 R399A): T1 sequence (Q6PFW1 1-1433) with R399A
The experiment in a line: kinase assay of purified phosphatase-compromised mutant, […] h, HPLC.

In test [3] the target is T1, PPIP5K1. As to the kind of experiment: InsP8 phosphatase assay with [3H]InsP8, HPLC, dose-response.
Test [4] deals with T1, PPIP5K1. As to the kind of experiment: phosphatase assay of purified recombinant enzyme, […] InsP8 with [3H]InsP8, HPLC.

Structures are written as SMILES. Numbering of substitutions follows the chain as printed.

As to `O=P(O)(O)O[C@H]1[C@@H](OP(=O)(O)O)[C@H](OP(=O)(O)O)[C@@H](OP(=O)(O)OP(=O)(O)O)[C@H](OP(=O)(O)O)[C@H]1OP(=O)(O)O` [5-InsP7], the “kinase assay of purified recombinant enzyme with 5-[3H]InsP7, HPLC, first-order” value on PPIP5K1 [1] was 0.07 min⁻¹. For the same compound, on PPIP5K1 [2], the “% / ng protein” value was determined as 6.9 ± 0.01 % / ng protein.
One may read the IC50 as the concentration at which inhibition is half-maximal. A high value points to weaker potency in that assay. As to `CCCCCCCC(=O)OC[C@H](COP(=O)(O)O[C@H]1[C@H](O)[C@@H](O)[C@H](OP(=O)(O)O)[C@@H](OP(=O)(O)O)[C@H]1O)OC(=O)CCCCCCC` [C8-PtdIns(3,4)P2], the half-maximal inhibitory concentration (IC50) against PPIP5K1 [3] is ~25 µM.
The same measure, in the same setting: the value for `CCCCCCCC(=O)OC[C@H](COP(=O)(O)O[C@H]1[C@H](O)[C@@H](OP(=O)(O)O)[C@H](OP(=O)(O)O)[C@@H](OP(=O)(O)O)[C@H]1O)OC(=O)CCCCCCC` [C8-PtdIns(3,4,5)P3] was ~35 µM; that for `CCCCCCCC(=O)OC[C@H](COP(=O)(O)O[C@@H]1[C@H](O)[C@H](O)[C@@H](OP(=O)(O)O)[C@H](OP(=O)(O)O)[C@H]1O)OC(=O)CCCCCCC` [C8-PtdIns(4,5)P2] was ~40 µM.
Consider `O=P(O)(O)O[C@@H]1[C@@H](OP(=O)(O)O)[C@H](OP(=O)(O)OP(=O)(O)O)[C@@H](OP(=O)(O)O)[C@H](OP(=O)(O)OP(=O)(O)O)[C@@H]1OP(=O)(O)O` [InsP8], for which the “phosphatase assay of purified recombinant enzyme, 1 μM InsP8 with [3H]InsP8, HPL” value at PPIP5K1 [4] was 7 ± 1 nmol/mg protein/min.
